# From patent US20040097543A1, “Use of cyclic 2,4-diphosphoclycerates (cdgp) and/or derivatives thereof in cosmetic and dermatological formulations” (priority 2000, published 2004)
# Legend:
# Solubility in water = assay type: physicochemical
# [1] = Stability properties (chemical, physical, pH, light); assay type: physicochemical
# Half-life (hydrolysis) = assay type: physicochemical; conditions: T = 120° C.
# LDH = test: Stabilization when freezing protein solutions (LDH); assay type: biochemical
# enzymes = test: Protection against thermally induced denaturation of enzymes; assay type: biochemical; conditions: in comparison with a number of other compatible solutes far and decidedly better
compound,measurement,setting,value
"O=C(O)[C@H]1COP(=O)(O)OP(=O)(O)O1 [Cyclic diphosphoglycerate, cyclic diphosphoglycerate]",solubility in water,Solubility in water,Excellent
same,chemical and physical stability,[1],High
same,half-life,Half-life (hydrolysis),150 h
same,stabilizing properties when freezing protein solutions (LDH),LDH,good stabilizing properties
same,protective effect in respect of the thermally induced denaturation of enzymes,enzymes,excellent
